The results in this text go back to patent US6893813B2, “Methods for treatment of HIV and other infections using a T cell or viral activator and anti-retroviral combination therapy” (priority 1997, dated 2005).

The test system of assay [1] is PBMCs isolated from HIV-infected subjects. Put plainly: culture of PBMCs from HIV-infected subjects without anti-retroviral drugs: T cell subsets. The assay is classed as cell-based, human. To be noted: no anti-retroviral drugs. The source says: (§1) The percent of CD8+ cells in the culture increased with lower concentrations of CD3,8 BSMAB. […] Absent anti-retroviral drugs, this massive activation of HIV will eventually cause a sharp decrease in the CD4+ T cell population.

Assay [2] deals with HIV. The experiment in a line: HIV replication (p24 in culture supernatant) in PBMC cultures without anti-retroviral drugs. Conditions: no anti-retroviral drugs. The assay is classed as cell-based, human.
Excerpt: as §1

As for phytohemagglutinin [PHA], in assay [1], the “T cell subsets activated” value was “both CD4+ and CD8+ T cells were activated”; the “selective outgrowth of CD4+ T cells” value is recorded as “No selective outgrowth of the CD4+ T cells occurred”. The “HIV replication (p24 in supernatant)” value in assay [2] was “induced increased HIV replication”.
